Values joined by “and” are separate entries in the source; they are usually repeats but may differ in a detail not shown here. Equal values may be shown once. Inconclusive results and toxic doses are left out.
System: P388 leukemia ip, CD2F1 mice, survival T/C
Test: NCI In Vivo Anticancer Drug Screen. Data for tumor model P388 Leukemia (intraperitoneal) in CD2F1 (CDF1) mice
Conditions: endpoint: median survival time, higher = longer survival
In short: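 Mice carrying the transplanted tumor received test compound or vehicle. Survival was recorded in each group, and the value is the treated-group measurement divided by that of the vehicle-treated control group.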

[1] = dose: 100.0 mg/kg/injection, schedule: Q04DX003 (ip), vehicle: saline with Tween-80
[2] = dose: 60.0 mg/kg/injection, schedule: Q01DX005 (ip), vehicle: saline with Tween-80
[3] = dose: 60.0 mg/kg/injection, schedule: Q01DX005 (ip), vehicle: saline
[4] = dose: 120.0 mg/kg/injection, schedule: Q01DX005 (ip), vehicle: saline
[5] = dose: 240.0 mg/kg/injection, schedule: Q01DX005 (ip), vehicle: saline

`COC(=O)c1cc(=O)n(-c2ccccc2OC)c(SC)n1` was tested, and the T/C (dose: 25.0 mg/kg/injection, schedule: Q04DX002 (ip), vehicle: Klucel (hydroxypropylcellulose) (HPC)) was 110 % of control, the T/C (dose: 50.0 mg/kg/injection, schedule: Q04DX002 (ip), vehicle: Klucel (hydroxypropylcellulose) (HPC)) was 100 % of control and the T/C (dose: 100.0 mg/kg/injection, schedule: Q04DX002 (ip), vehicle: Klucel (hydroxypropylcellulose) (HPC)) was 103 % of control.

In the case of `CSC(C#N)(Cc1ccccc1)N1CCOCC1` (stereo not given), the T/C [1] is reported as 107 % of control, the T/C (dose: 200.0 mg/kg/injection, schedule: Q04DX003 (ip), vehicle: saline with Tween-80) is reported as 103 % of control and the T/C (dose: 400.0 mg/kg/injection, schedule: Q04DX003 (ip), vehicle: saline with Tween-80) is reported as 103 % of control.

In the case of `CCC1(O)CC2C3C(C(=O)OC)=C4Nc5ccccc5C45CCN(C31)C25` (stereo not given), the T/C (dose: 1.0 mg/kg/injection, schedule: Q01DX001 (ip), vehicle: water) is reported as 100 % of control, the T/C (dose: 2.0 mg/kg/injection, schedule: Q01DX001 (ip), vehicle: water) is reported as 100 % of control and the T/C (dose: 4.0 mg/kg/injection, schedule: Q01DX001 (ip), vehicle: water) is reported as 101 % of control. The T/C (dose: 8.0 mg/kg/injection, schedule: Q01DX001 (ip), vehicle: water) was 92 % of control, the T/C (dose: 16.0 mg/kg/injection, schedule: Q01DX001 (ip), vehicle: water) was 95 % of control and the T/C (dose: 32.0 mg/kg/injection, schedule: Q01DX001 (ip), vehicle: water) was 99 % of control.

`c1ccc(-c2nc3n(n2)CCC(c2ccccc2)S3)cc1` (stereo not given) was tested, and the T/C [2] was 92 % of control, the T/C (dose: 120.0 mg/kg/injection, schedule: Q01DX005 (ip), vehicle: saline with Tween-80) was 89 % of control and the T/C (dose: 240.0 mg/kg/injection, schedule: Q01DX005 (ip), vehicle: saline with Tween-80) was 87 % of control.

For `CN=C1NC2C(C(=O)N(C)C(=O)N2C)C(=S)N1C` (stereo not given), the T/C (dose: 6.25 mg/kg/injection, schedule: Q04DX002 (ip), vehicle: saline with Tween-80) was 100 % of control, the T/C (dose: 12.5 mg/kg/injection, schedule: Q04DX002 (ip), vehicle: saline with Tween-80) was 104 % of control and the T/C (dose: 25.0 mg/kg/injection, schedule: Q04DX002 (ip), vehicle: saline with Tween-80) was 101 % of control.

In the case of `CCCCCCOC(=O)c1cccc(N)c1`, the T/C (dose: 50.0 mg/kg/injection, schedule: Q01DX009 (ip), vehicle: Klucel (hydroxypropylcellulose) (HPC)) is reported as 100 % of control, the T/C (dose: 100.0 mg/kg/injection, schedule: Q01DX009 (ip), vehicle: Klucel (hydroxypropylcellulose) (HPC)) is reported as 106 % of control and the T/C (dose: 200.0 mg/kg/injection, schedule: Q01DX009 (ip), vehicle: Klucel (hydroxypropylcellulose) (HPC)) is reported as 102 % of control.

For `CCCC(OC(C)=O)c1coc(C)c1` (stereo not given), the T/C (dose: 100.0 mg/kg/injection, schedule: Q01DX001 (ip), vehicle: saline) was 104 % of control, the T/C (dose: 200.0 mg/kg/injection, schedule: Q01DX001 (ip), vehicle: saline) was 100 % of control and the T/C (dose: 400.0 mg/kg/injection, schedule: Q01DX001 (ip), vehicle: saline) was 104 % of control.

In the case of `CCOc1c(N=Nc2ccccc2Cl)c(C)nn1C(=S)SC`, the T/C (dose: 60.0 mg/kg/injection, schedule: Q01DX005 (ip), vehicle: Klucel + Tween-80) is reported as 103 % of control, the T/C (dose: 120.0 mg/kg/injection, schedule: Q01DX005 (ip), vehicle: Klucel + Tween-80) is reported as 112 % of control and the T/C (dose: 240.0 mg/kg/injection, schedule: Q01DX005 (ip), vehicle: Klucel + Tween-80) is reported as 103 % of control.

For `CCO/C=C1\CC(=O)N(c2ccc(F)c(Cl)c2)C1=O`, the T/C (dose: 25.0 mg/kg/injection, schedule: Q01DX001 (ip), vehicle: saline with Tween-80) was 100 % of control, the T/C (dose: 50.0 mg/kg/injection, schedule: Q01DX001 (ip), vehicle: saline with Tween-80) was 100 % of control and the T/C (dose: 100.0 mg/kg/injection, schedule: Q01DX001 (ip), vehicle: saline with Tween-80) was 98 % of control and 100 % of control. For the same molecule, the T/C (dose: 200.0 mg/kg/injection, schedule: Q01DX001 (ip), vehicle: saline with Tween-80) was 109 % of control and the T/C (dose: 400.0 mg/kg/injection, schedule: Q01DX001 (ip), vehicle: saline with Tween-80) was 100 % of control.

For `NCC1=NCCN1`, the T/C [3] was 92 % of control, the T/C [4] was 99 % of control and the T/C [5] was 94 % of control.

With `COc1cc(NC(C)CN(CC(C)C)CC(C)C)c2ncccc2c1Cl` (stereo not given) the T/C (dose: 50.0 mg/kg/injection, schedule: Q01DX005 (ip), vehicle: saline) was 100 % of control, the T/C (dose: 100.0 mg/kg/injection, schedule: Q01DX005 (ip), vehicle: saline) was 103 % of control and the T/C (dose: 200.0 mg/kg/injection, schedule: Q01DX005 (ip), vehicle: saline) was 116 % of control.

With `CCC[CH2][Sn]([Cl])([CH2]CCC)[S]/C(C#N)=N/N=C/c1ccc(N(C)C)cc1` the T/C (dose: 15.0 mg/kg/injection, schedule: Q01DX005 (ip), vehicle: saline with Tween-80) was 106 % of control and the T/C [2] was 122 % of control.

`COC(=O)C1c2cc3c(c(O)c2C(OC)CC1(C)O)C(=O)c1c(O)cc2c(c1C3=O)OC1OC2(C)C(O)C(N(C)C)C1O` (stereo not given) was tested, and the T/C (dose: 3.16 mg/kg/injection, schedule: Q01DX009 (ip), vehicle: other) was 156 % of control, the T/C (dose: 5.0 mg/kg/injection, schedule: Q01DX009 (ip), vehicle: other) was 161 % of control and the T/C (dose: 6.25 mg/kg/injection, schedule: Q01DX009 (ip), vehicle: other) was 168 % of control. The T/C (dose: 10.0 mg/kg/injection, schedule: Q01DX009 (ip), vehicle: other) was 171 % of control, the T/C (dose: 12.5 mg/kg/injection, schedule: Q01DX009 (ip), vehicle: other) was 168 % of control and the T/C (dose: 20.0 mg/kg/injection, schedule: Q01DX009 (ip), vehicle: other) was 171 % of control. The T/C (dose: 25.0 mg/kg/injection, schedule: Q01DX009 (ip), vehicle: other) was 198 % of control and the T/C (dose: 40.0 mg/kg/injection, schedule: Q01DX009 (ip), vehicle: other) was 117 % of control.

With `CN(N=O)C(=O)Nc1c[nH]c(=O)[nH]c1=O` the T/C (dose: 25.0 mg/kg/injection, schedule: Q01DX009 (ip), vehicle: saline sonified) was 186 % of control, the T/C (dose: 25.0 mg/kg/injection, schedule: Q04DX003 (ip), vehicle: saline with Tween-80) was 190 % of control and the T/C (dose: 50.0 mg/kg/injection, schedule: Q01DX009 (ip), vehicle: saline sonified) was 200 % of control. The T/C (dose: 50.0 mg/kg/injection, schedule: Q04DX003 (ip), vehicle: saline with Tween-80) was 195 % of control, the T/C (dose: 66.0 mg/kg/injection, schedule: Q04DX003 (ip), vehicle: saline with Tween-80) was 163 % of control and the T/C [1] was 186 % of control and 190 % of control. For the same molecule, the T/C (dose: 150.0 mg/kg/injection, schedule: Q04DX003 (ip), vehicle: saline with Tween-80) was 90 % of control.

With `COc1ccc2c(c1)-c1nn(CCCN(C)C)c3ccc([N+](=O)[O-])c(c13)N2` the T/C (dose: 4.5 mg/kg/injection, schedule: Q01DX005 (ip), vehicle: water) was 169 % of control, the T/C (dose: 6.25 mg/kg/injection, schedule: Q01DX005 (ip), vehicle: water) was 189 % of control and the T/C (dose: 7.5 mg/kg/injection, schedule: Q01DX005 (ip), vehicle: water) was 181 % of control. The T/C (dose: 12.5 mg/kg/injection, schedule: Q01DX005 (ip), vehicle: water) was 213 % of control and 216 % of control and 227 % of control, the T/C (dose: 21.0 mg/kg/injection, schedule: Q01DX005 (ip), vehicle: water) was 253 % of control and the T/C (dose: 25.0 mg/kg/injection, schedule: Q01DX005 (ip), vehicle: water) was 261 % of control. The T/C (dose: 35.0 mg/kg/injection, schedule: Q01DX005 (ip), vehicle: water) was 290 % of control.

In the case of `Nc1cc(C(=O)Nc2ccc(C3=NCCN3)cc2)cc(C(=O)Nc2ccc(C3=NCCN3)cc2)c1`, the T/C (dose: 32.0 mg/kg/injection, schedule: Q01DX010 (ip), vehicle: saline) is reported as 168 % of control.

For `CCN(CC)CCNc1ccc(COC(=O)NC)c2oc3ccccc3c(=O)c12`, the T/C (dose: 1.5 mg/kg/injection, schedule: Q01DX005 (ip), vehicle: distilled water + Tween-80) was 113 % of control, the T/C (dose: 3.0 mg/kg/injection, schedule: Q01DX005 (ip), vehicle: distilled water + Tween-80) was 113 % of control and the T/C (dose: 6.0 mg/kg/injection, schedule: Q01DX005 (ip), vehicle: distilled water + Tween-80) was 113 % of control. The T/C (dose: 12.5 mg/kg/injection, schedule: Q01DX005 (ip), vehicle: distilled water + Tween-80) was 93 % of control.

In the case of `CCC(=O)C(C)C(=O)CCC(=O)Nc1cc(Cl)ccc1Cl` (stereo not given), the T/C [3] is reported as 101 % of control, the T/C [4] is reported as 103 % of control and the T/C [5] is reported as 103 % of control.

For `CC(=N)C1C(=O)C=C(C)OC1=O` (stereo not given), the T/C (dose: 50.0 mg/kg/injection, schedule: Q01DX009 (ip), vehicle: saline) was 86 % of control, the T/C (dose: 100.0 mg/kg/injection, schedule: Q01DX009 (ip), vehicle: saline) was 88 % of control and the T/C (dose: 200.0 mg/kg/injection, schedule: Q01DX009 (ip), vehicle: saline) was 88 % of control.

`CCN(CC)P(=O)(N1CC1C)N1CC1C` (stereo not given) was tested, and the T/C (dose: 33.0 mg/kg/injection, schedule: Q04DX003 (ip), vehicle: saline) was 109 % of control and the T/C (dose: 75.0 mg/kg/injection, schedule: Q04DX003 (ip), vehicle: saline) was 150 % of control.

Source: PubChem BioAssay AID330 (DTP/NCI, 2004)
